Measurements taken from article PMC9873234, “Syntheses and Structure–Activity Relationships of N-Phenethyl-Quinazolin-4-yl-Amines as Potent Inhibitors of Cytochrome bd Oxidase in Mycobacterium tuberculosis” (Applied sciences (Basel, Switzerland), 2021).
Read-outs that look alike come from different tables or passages of the source.

What was measured:
Assay in all cases: microbe, parasite or virus in culture
M. bovis BCG [1] = system: T1, M. bovis BCG; design: species or system M. tuberculosis H37Rv or N0145; conditions: Mycobacterium tuberculosis variant bovis BCG, 15 h, read-out: BCG / −Q203
T1 construct: BCG

M. tuberculosis N0145 [2] = system: T2, M. tuberculosis N0145; design: species or system M. bovis BCG, M. tuberculosis H37Rv or N0145
T2 construct: N0145 (clinical isolate)

M. tuberculosis H37Rv [3] = system: T3, M. tuberculosis H37Rv; design: species or system M. bovis BCG, M. tuberculosis H37Rv or N0145; conditions: Mycobacterium tuberculosis, 15 h, read-out: Replicating ATP IC50 (µM) H37Rv / −Q203
T3 construct: H37Rv

M. tuberculosis H37Rv [4] = system: T3, M. tuberculosis H37Rv; design: ATP depletion in replicating mycobacteria without Q203, BacTiter-Glo luminescence; conditions: Mycobacterium tuberculosis, 15 h, read-out: Replicating ATP IC50 (µM) H37Rv / −Q203
M. bovis BCG [5] = system: T1, M. bovis BCG; design: species or system M. tuberculosis H37Rv or N0145; conditions: Mycobacterium tuberculosis variant bovis BCG, 15 h, read-out: BCG / −Q203; remark: listed apart in the source
M. tuberculosis N0145 [6] = system: T2, M. tuberculosis N0145; design: species or system M. bovis BCG, M. tuberculosis H37Rv or N0145; conditions: Mycobacterium tuberculosis, N0145, 15 h; read-out: N0145 / –Q203
[7] = Mycobacterium tuberculosis, N0145, 15 h; read-out: N0145 / –Q203

| SMILES | IC50 (M. bovis BCG [1]) [µM] | IC50 (M. tuberculosis N0145 [2]; [7]) [µM] | IC50 (M. tuberculosis H37Rv [3]) [µM] | IC50 (M. tuberculosis H37Rv [4]) [µM] | IC50 (M. bovis BCG [5]) [µM] | IC50 (M. tuberculosis N0145 [6]) [µM] | IC50 (M. tuberculosis N0145 [2]; Mycobacterium tuberculosis, N0145, 15 h, read-out: N0145 / –Q203) [µM] |
| --- | --- | --- | --- | --- | --- | --- | --- |
| FC(F)(F)c1ccc(CCNc2ncnc3ccccc23)cc1 [6a, Quinazolin-4-yl{2-[4-(trifluoromethyl)phenyl]ethyl}amine] | > 25 | > 25 | > 25 |  |  |  |  |
| FC(F)(F)Oc1ccc(CCNc2ncnc3ccccc23)cc1 [7a, Quinazolin-4-yl{2-[4-(trifluoromethoxy)phenyl]ethyl}amine] | > 25 | > 25 | > 25 |  |  |  |  |
| Clc1ccc(CCNc2ncnc3ccccc23)cc1 [8a] | > 25 | > 25 | > 25 |  |  |  |  |
| FS(F)(F)(F)(F)c1ccc(CCNc2ncnc3ccccc23)cc1 [9a] | > 25 | > 25 | > 25 |  |  |  |  |
| Cc1ccc(CCNc2ncnc3ccccc23)cc1 [10a] | > 25 | > 25 | > 25 |  |  |  |  |
| COc1ccc(CCNc2ncnc3ccccc23)cc1 [11a] | > 25 | > 25 | > 25 |  |  |  |  |
| CC(C)(C)c1ccc(CCNc2ncnc3ccccc23)cc1 [12a, {2-[4-(tert-Butyl)phenyl]ethyl}quinazolin-4-ylamine] | > 25 | > 25 | > 25 |  |  |  |  |
| FC(F)(F)Oc1cccc(CCNc2ncnc3ccccc23)c1 [13a] | > 25 | > 25 | > 25 |  |  |  |  |
| CCOc1cccc(CCNc2ncnc3ccccc23)c1 [14a] | > 25 | > 25 | > 25 |  |  |  |  |
| FC(F)(F)c1ccccc1CCNc1ncnc2ccccc12 [15a, Quinazolin-4-yl{2-[2-(trifluromethyl)phenyl]ethyl}amine] | > 25 | > 25 | > 25 |  |  |  |  |
| Fc1ccc2ncnc(NCCc3ccc(OC(F)(F)F)cc3)c2c1 [16a] |  |  |  | > 25 | > 25 | > 25 |  |
| Cc1ccc2ncnc(NCCc3ccc(OC(F)(F)F)cc3)c2c1 [17a] |  |  |  | > 25 | > 25 | > 25 |  |
| COc1ccc2ncnc(NCCc3ccc(OC(F)(F)F)cc3)c2c1 [18a] |  |  |  | > 25 | > 25 | > 25 |  |
| Fc1ccc2c(NCCc3ccc(OC(F)(F)F)cc3)ncnc2c1 [19a, (7-Fluoroquinazolin-4-yl){2-[4-(trifluormethoxy)phenyl]ethyl}amine] |  |  |  | > 25 | > 25 | > 25 |  |
| FC(F)(F)Oc1ccc(CCNc2ncnc3cc(Cl)ccc23)cc1 [20a] |  |  |  | > 25 | > 25 | > 25 |  |
| FC(F)(F)Oc1ccc(CCNc2ncnc3cc(Br)ccc23)cc1 [21a] |  |  |  | > 25 | > 25 | > 25 |  |
| FC(F)(F)Oc1ccc(CCNc2ncnc3cc(C(F)(F)F)ccc23)cc1 [22a] |  |  |  | > 25 | > 25 | > 25 |  |
| COc1ccc2c(NCCc3ccc(OC(F)(F)F)cc3)ncnc2c1 [23a] |  |  |  | > 25 | > 25 | > 25 |  |
| Cc1nc(NCCc2ccc(OC(F)(F)F)cc2)c2ccccc2n1 [24a] |  |  |  | 7.5 ± 1.02 | 12.2 ± 0.737 | 8.2 ± 0.654 |  |
| FC(F)(F)Oc1ccc(CCNc2nc(C3CC3)nc3ccccc23)cc1 [25a] |  |  |  | 7.6 ± 1.03 | 8.5 ± 1.53 | 7.3 ± 1.05 |  |
| Cc1nc(NCCc2ccc(OC(F)(F)F)cc2)c2ccc(F)cc2n1 [26a] |  |  |  | 23.6 ± 7.81 | > 25 | > 25 |  |
| COc1nc2ccc(Br)cc2cc1[C@@H](c1ccccc1)[C@@](O)(CCN(C)C)c1cccc2ccccc12 [BDQ] | 0.17 ± 0.019 | 0.05 ± 0.003 | 0.06 ± 0.019 |  |  |  |  |
| CC(C)=CCC/C(C)=C/CC/C(C)=C/Cc1c(C)[nH]c2ccccc2c1=O [aurachin D] | > 25 | > 25 | 5.5 ± 1.11 |  |  |  |  |
| FC(F)(F)c1ccc(Oc2ccc(Nc3ncnc4ccccc34)cc2)cc1 [compound 2] | > 25 | > 25 | > 25 |  |  |  |  |
| c1ccc(CCNc2ncnc3ccccc23)cc1 [compound 3] | > 25 |  | > 25 |  |  |  | > 25 |
